The text below walks through data of ChEMBL document CHEMBL1126607, “Synthesis and binding characteristics of potential SPECT imaging agents for sigma-1 and sigma-2 binding sites” (J Med Chem, 1993).

Usually Ki stands for a dissociation constant, usually derived from enzyme kinetics or from competition with a known ligand. Read a low Ki as a stronger hold on the target.

The target of one test is Sigma 2 receptor. Briefly: The Binding affinity was evaluated using [3H]DTG -(+)-Dextrallorphan] in rat liver.
In turn, `Cc1ccc(NC(=N)Nc2ccc(C)cc2)cc1` gave an inhibitory constant (Ki) of 1.54 µM.

The target in the next test is Sigma 2 receptor. Briefly: Binding affinity was evaluated against sigma-2 binding site in rat liver using [3H]DTG -(+)-Dextrallorphan as radioligand.
For `CN(CCc1cccc(Cl)c1)CCN1CCCC1`, the Ki amounted to 0.0283 µM.
Consider `CN(CCc1cccc(Br)c1)CCN1CCCC1`, for which the inhibition constant Ki was found to be 0.0598 µM.
Compound `CN(CCc1cccc(I)c1)CCN1CCCC1` returned a Ki of 0.0091 µM.
Still for that read-out and setting: to `CN(CCc1ccc(I)cc1)CCN1CCCC1` belongs 0.0431 µM; to `CN(CCc1cccc(F)c1)CCN1CCCC1`, 0.104 µM.
In the case of `CN(CCN1CCCC1)Cc1cccc(Br)c1`, the inhibitory constant (Ki) came out at 0.22 µM.
Same read-out and setting: to `CN(CCc1ccc(F)cc1)CCN1CCCC1` belongs 0.124 µM.
Same read-out and setting: next, `CN(CCN1CCCC1)Cc1ccc(I)cc1`: 0.0245 µM; `CN(CCc1ccc(Cl)c(Cl)c1)CCN1CCCC1`: 0.0081 µM.
On the same count and under the same terms, next, `CN(CCc1ccc(Br)cc1)CCN1CCCC1`: 0.0325 µM.
`CN(CCN1CCCC1)Cc1ccccc1I` came in with a Ki of 0.0482 µM.
The same measure, in the same setting: to `CN(CCN1CCCC1)Cc1cccc(I)c1` belongs 0.0337 µM.
Turning to `CN(CCc1ccc(Cl)cc1)CCN1CCCC1`, the affinity corresponds to a Ki of 0.0505 µM.

A further test has as its target Sigma 2 receptor. Briefly: The Binding affinity was evaluated against sigma-2 binding site in rat liver using [3H]- -(+)-3-PPP.
On to `CN(CCc1ccc(Cl)c(Cl)c1)CCN1CCCC1`, for which affinity was put at a Ki of 0.00034 µM.
